For one data set, the target named is recombinant c-Met kinase (Homo sapiens, UniProt P08581). Kind of data set: Cell-free detection of c-Met kinase activity (ADP-Glo assay). For orientation: ADP-Glo turns the ADP formed in a reaction into a luminescent signal.
A further data set addresses VEGFR-2 (Homo sapiens, UniProt P35968). Kind of data set: Kinase activity against VEGFR-2. The settings on record: for IC50: Table 3, inhibitory activity (IC50) against VEGFR-2, – = no inhibitory effect. The data set is classed as biochemical. An excerpt:
It was consistent with the QSAR predicted results. […] Both of the proteins belong to the family of tyrosine kinase, which catalyse the phosphorylation of tyrosine. […] While subtle differences may make small molecules show different activities against the two kinases. So we superimposed the two kinases in three dimensions to explore the reason.

Data on 22 compounds can be found in publication PMC6968643, “Synthesis and biological evaluation of novel (E)-N'-benzylidene hydrazides as novel c-Met inhibitors through fragment based virtual screening” (Journal of Enzyme Inhibition and Medicinal Chemistry, 2020).

Broadly, the IC50 is the concentration that gives 50% inhibition. As usually defined, the melting point is the temperature, or range, at which the solid turns liquid.

Each structure is given as a SMILES string.

Chain of recombinant c-Met kinase (P08581 25-1390): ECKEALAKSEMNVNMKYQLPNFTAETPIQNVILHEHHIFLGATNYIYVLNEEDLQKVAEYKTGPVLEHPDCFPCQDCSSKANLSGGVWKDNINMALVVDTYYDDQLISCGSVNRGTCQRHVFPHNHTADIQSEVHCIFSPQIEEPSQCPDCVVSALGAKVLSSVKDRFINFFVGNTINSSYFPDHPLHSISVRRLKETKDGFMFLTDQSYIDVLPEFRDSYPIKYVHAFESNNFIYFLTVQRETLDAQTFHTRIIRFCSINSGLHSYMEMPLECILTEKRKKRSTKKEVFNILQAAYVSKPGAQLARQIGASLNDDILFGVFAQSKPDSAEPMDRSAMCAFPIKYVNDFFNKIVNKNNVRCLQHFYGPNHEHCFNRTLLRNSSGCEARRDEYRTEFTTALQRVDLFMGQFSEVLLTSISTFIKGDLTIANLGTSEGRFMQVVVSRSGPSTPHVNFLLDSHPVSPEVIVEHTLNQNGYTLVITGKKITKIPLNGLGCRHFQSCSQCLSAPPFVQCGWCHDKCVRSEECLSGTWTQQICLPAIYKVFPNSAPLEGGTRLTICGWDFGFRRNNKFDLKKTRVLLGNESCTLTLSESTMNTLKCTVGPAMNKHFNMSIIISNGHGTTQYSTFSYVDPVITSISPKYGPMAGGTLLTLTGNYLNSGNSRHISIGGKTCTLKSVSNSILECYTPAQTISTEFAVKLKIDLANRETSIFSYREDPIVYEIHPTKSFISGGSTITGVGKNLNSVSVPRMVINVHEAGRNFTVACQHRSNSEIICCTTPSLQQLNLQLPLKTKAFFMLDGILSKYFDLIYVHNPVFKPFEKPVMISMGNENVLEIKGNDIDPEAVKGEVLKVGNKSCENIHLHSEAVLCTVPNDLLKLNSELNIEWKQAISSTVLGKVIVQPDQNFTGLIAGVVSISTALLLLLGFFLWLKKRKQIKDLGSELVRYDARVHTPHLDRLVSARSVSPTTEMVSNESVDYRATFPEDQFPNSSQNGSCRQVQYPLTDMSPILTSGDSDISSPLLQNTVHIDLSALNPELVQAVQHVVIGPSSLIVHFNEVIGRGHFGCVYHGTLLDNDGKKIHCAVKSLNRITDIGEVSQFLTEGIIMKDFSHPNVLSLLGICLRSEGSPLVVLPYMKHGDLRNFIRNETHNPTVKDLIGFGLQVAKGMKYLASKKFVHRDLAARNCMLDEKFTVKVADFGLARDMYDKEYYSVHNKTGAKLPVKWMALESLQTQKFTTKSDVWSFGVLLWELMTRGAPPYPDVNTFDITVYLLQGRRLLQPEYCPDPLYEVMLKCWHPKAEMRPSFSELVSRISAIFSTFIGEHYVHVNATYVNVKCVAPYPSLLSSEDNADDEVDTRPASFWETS
Chain of VEGFR-2 (P35968 20-1356): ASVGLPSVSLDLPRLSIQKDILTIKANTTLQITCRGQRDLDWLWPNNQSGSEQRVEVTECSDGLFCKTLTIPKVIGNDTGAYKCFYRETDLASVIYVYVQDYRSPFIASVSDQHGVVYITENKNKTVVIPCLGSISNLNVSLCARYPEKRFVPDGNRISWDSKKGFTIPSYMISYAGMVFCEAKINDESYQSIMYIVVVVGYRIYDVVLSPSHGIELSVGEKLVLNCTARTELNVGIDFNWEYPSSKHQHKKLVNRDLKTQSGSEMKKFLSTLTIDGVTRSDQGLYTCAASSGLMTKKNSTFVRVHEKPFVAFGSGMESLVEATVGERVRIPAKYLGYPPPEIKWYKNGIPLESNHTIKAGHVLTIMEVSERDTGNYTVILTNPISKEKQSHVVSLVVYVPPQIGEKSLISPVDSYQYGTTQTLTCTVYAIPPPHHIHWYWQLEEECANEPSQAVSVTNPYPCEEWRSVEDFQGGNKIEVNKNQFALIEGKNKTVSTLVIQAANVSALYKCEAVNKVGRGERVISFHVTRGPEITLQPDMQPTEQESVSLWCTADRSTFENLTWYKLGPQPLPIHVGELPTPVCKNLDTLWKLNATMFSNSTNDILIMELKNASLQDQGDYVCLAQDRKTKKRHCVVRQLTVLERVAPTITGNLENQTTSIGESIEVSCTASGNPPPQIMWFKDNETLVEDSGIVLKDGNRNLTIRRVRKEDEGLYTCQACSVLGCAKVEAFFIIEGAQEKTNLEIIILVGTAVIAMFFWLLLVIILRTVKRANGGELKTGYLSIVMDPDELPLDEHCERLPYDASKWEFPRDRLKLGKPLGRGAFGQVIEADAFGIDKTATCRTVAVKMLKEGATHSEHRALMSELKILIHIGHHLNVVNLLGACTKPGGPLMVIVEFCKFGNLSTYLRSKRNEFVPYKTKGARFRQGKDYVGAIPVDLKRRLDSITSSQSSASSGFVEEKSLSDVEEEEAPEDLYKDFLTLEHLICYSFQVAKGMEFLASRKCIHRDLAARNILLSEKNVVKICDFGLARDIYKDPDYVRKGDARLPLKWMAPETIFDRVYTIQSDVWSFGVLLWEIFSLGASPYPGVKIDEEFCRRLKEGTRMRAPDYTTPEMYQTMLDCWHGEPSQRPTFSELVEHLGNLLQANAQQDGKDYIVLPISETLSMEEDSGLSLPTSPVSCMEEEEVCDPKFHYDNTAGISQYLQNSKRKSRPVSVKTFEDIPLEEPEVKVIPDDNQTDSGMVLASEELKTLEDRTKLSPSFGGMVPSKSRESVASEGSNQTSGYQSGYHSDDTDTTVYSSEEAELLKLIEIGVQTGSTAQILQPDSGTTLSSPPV
Method for recombinant c-Met kinase: The capacity of the novel compounds for inhibiting c-Met activity was evaluated using a cell-free assay.

As for `COc1ccc(/C=N/NC(=O)Cn2cc(-c3ccccc3)nn2)cc1OC` [Compound 11j, (E)-N'-(3,4-dimethoxybenzylidene)-2-(4-phenyl-1H-1,2,3-triazol-1-yl)acetohydrazide], the melting point was 232.1 to 232.5 °C. In addition, at recombinant c-Met kinase, the IC50 is 3.08 µM.

For `O=C(Cn1cc(-c2ccccc2)nn1)N/N=C/c1cc(Cl)ccc1O` [Compound 11f, (E)-N'-(5-chloro-2-hydroxybenzylidene)-2-(4-phenyl-1H-1,2,3-triazol-1-yl)acetohydrazide], the melting point is 240 to 240.6 °C. Further, at recombinant c-Met kinase, the IC50 was over 12 µM. At VEGFR-2, inhibition was half-maximal at 9860 nM (IC50).

For the compound `CC(=O)Nc1cccc(-c2cn(CC(=O)N/N=C/c3cc(Br)cc(Br)c3O)nn2)c1` [Compound 10g, (E)-2-(4-(3-acetamidophenyl)-1H-1,2,3-triazol-1-yl)-N'-(3,5-dibromo-2-hydroxybenzylidene)acetohydrazide], the melting point was 237 to 237.5 °C. Besides, at recombinant c-Met kinase, the concentration for half-maximal inhibition (IC50) came out at 8.93 µM.

`COc1ccc(/C=N/NC(=O)Cn2cc(-c3cccc(NC(C)=O)c3)nn2)c(OC)c1` [Compound 10i, (E)-2-(4-(3-acetamidophenyl)-1H-1,2,3-triazol-1-yl)-N'-(2,4-dimethoxybenzylidene) acetohydrazide] registered a melting point of 210.9 to 211.3 °C. The IC50 on recombinant c-Met kinase came out at 0.00173 µM.

Compound `CC(=O)Nc1cccc(-c2cn(CC(=O)N/N=C/c3cc(Br)ccc3O)nn2)c1` [Compound 10h, (E)-2-(4-(3-acetamidophenyl)-1H-1,2,3-triazol-1-yl)-N'-(5-bromo-2-hydroxybenzylidene) acetohydrazide] had a melting point of 228.9 to 229.3 °C. Moreover, the IC50 at recombinant c-Met kinase was over 12 µM.

`CC(=O)Nc1cccc(-c2cn(CC(=O)N/N=C/c3ccccc3[N+](=O)[O-])nn2)c1` [Compound 10e, (E)-2-(4-(3-acetamidophenyl)-1H-1,2,3-triazol-1-yl)-N'-(2-nitrobenzylidene)acetohydrazide] yielded a melting point of 233.2 to 233.8 °C. Also, at recombinant c-Met kinase, the IC50 is 5.86 µM.

`COc1ccc(/C=N/NC(=O)Cn2cc(-c3cccc(NC(C)=O)c3)nn2)cc1OC` [Compound 10j, (E)-2-(4-(3-acetamidophenyl)-1H-1,2,3-triazol-1-yl)-N'-(3,4-dimethoxybenzylidene) acetohydrazide] yielded a melting point of 230 to 230.6 °C. Besides, at recombinant c-Met kinase, the IC50 was 0.00542 µM.

`O=C(Cn1cc(-c2ccccc2)nn1)N/N=C/c1cc(Br)ccc1O` [Compound 11h, (E)-N'-(5-bromo-2-hydroxybenzylidene)-2-(4-phenyl-1H-1,2,3-triazol-1-yl)acetohydrazide] showed a melting point of 233 to 233.5 °C. The IC50 on recombinant c-Met kinase was found to be 0.0119 µM.

With `O=C(Cn1cc(-c2ccccc2)nn1)N/N=C/c1cccc(Cl)c1` [Compound 11b, (E)-N'-(3-chlorobenzylidene)-2-(4-phenyl-1H-1,2,3-triazol-1-yl)acetohydrazide], the melting point was in the range of 259 to 259.8 °C. Besides, the IC50 at recombinant c-Met kinase came out at 0.00341 µM. The compound further showed an IC50 on VEGFR-2 of 25.3 nM.

As for `COc1cc(/C=N/NC(=O)Cn2cc(-c3cccc(NC(C)=O)c3)nn2)cc(OC)c1OC` [Compound 10k, (E)-2-(4-(3-acetamidophenyl)-1H-1,2,3-triazol-1-yl)-N'-(3,4,5-trimethoxybenzylidene) acetohydrazide], the melting point is 210.2 to 212.9 °C. At recombinant c-Met kinase, the IC50 is 0.0915 µM.

Take `CC(=O)Nc1cccc(-c2cn(CC(=O)N/N=C/c3cccc(Cl)c3)nn2)c1` [Compound 10b, (E)-2-(4-(3-acetamidophenyl)-1H-1,2,3-triazol-1-yl)-N'-(3-chlorobenzylidene)]: the melting point is 255.8 to 256.3 °C. In addition, the concentration for half-maximal inhibition (IC50) at recombinant c-Met kinase is 0.00037 µM. Further, at VEGFR-2, the “activity against VEGFR-2 (in words)” value was “no activity” and the IC50 is over 12000 nM.

Turning to `COc1cc(/C=N/NC(=O)Cn2cc(-c3ccccc3)nn2)cc(OC)c1OC` [Compound 11k, (E)-2-(4-phenyl-1H-1,2,3-triazol-1-yl)-N'-(3,4,5-trimethoxybenzylidene)acetohydrazide], the melting point fell in the range of 233.5 to 233.8 °C. In addition, the IC50 at recombinant c-Met kinase was over 12 µM.

Regarding `O=C(Cn1cc(-c2ccccc2)nn1)N/N=C/c1cc(Br)cc(Br)c1O` [Compound 11g, (E)-N'-(3,5-dibromo-2-hydroxybenzylidene)-2-(4-phenyl-1H-1,2,3-triazol-1-yl) acetohydrazide], the melting point fell in the range of 231 to 231.5 °C. In addition, the IC50 on recombinant c-Met kinase was over 12 µM.

As to `CC(=O)Nc1cccc(-c2cn(CC(=O)N/N=C/c3ccccc3O)nn2)c1` [Compound 10d, (E)-2-(4-(3-acetamidophenyl)-1H-1,2,3-triazol-1-yl)-N'-(2-hydroxybenzylidene) acetohydrazide], the melting point lay in the range of 253.8 to 254.2 °C. The IC50 on recombinant c-Met kinase came to 0.266 µM.

Take `COc1ccc(/C=N/NC(=O)Cn2cc(-c3ccccc3)nn2)c(OC)c1` [Compound 11i, (E)-N'-(2,4-dimethoxybenzylidene)-2-(4-phenyl-1H-1,2,3-triazol-1-yl)acetohydrazide]: the melting point lay in the range of 230 to 230.4 °C. At recombinant c-Met kinase, the IC50 was over 12 µM. The compound further registered an IC50 at VEGFR-2 of 849 nM.

In the case of `O=C(Cn1cc(-c2ccccc2)nn1)N/N=C/c1ccc(O)cc1` [Compound 11c, (E)-N'-(4-hydroxybenzylidene)-2-(4-phenyl-1H-1,2,3-triazol-1-yl)acetohydrazide], the melting point is 234 to 234.5 °C. Besides, the IC50 at recombinant c-Met kinase stood at 5.68 µM.

On to `CC(=O)Nc1cccc(-c2cn(CC(=O)N/N=C/c3ccc(Cl)cc3)nn2)c1` [Compound 10a, (E)-2-(4-(3-acetamidophenyl)-1H-1,2,3-triazol-1-yl)-N'-(4-chlorobenzylidene)], for which the melting point fell in the range of 234.6 to 234.9 °C. The IC50 at recombinant c-Met kinase turned out to be 0.0017 µM.

In turn, `O=C(Cn1cc(-c2ccccc2)nn1)N/N=C/c1ccccc1O` [Compound 11d, (E)-N'-(2-hydroxybenzylidene)-2-(4-phenyl-1H-1,2,3-triazol-1-yl)acetohydrazide] had a melting point of 239 to 239.6 °C. Moreover, the IC50 on recombinant c-Met kinase is over 12 µM.

Compound `CC(=O)Nc1cccc(-c2cn(CC(=O)N/N=C/c3cc(Cl)ccc3O)nn2)c1` [Compound 10f, (E)-2-(4-(3-acetamidophenyl)-1H-1,2,3-triazol-1-yl)-N'-(5-chloro-2-hydroxybenzylidene) acetohydrazide] came in with a melting point of 234.6 to 234.9 °C. For the same compound, the IC50 on recombinant c-Met kinase worked out at 0.00119 µM. Moreover, the midpoint of inhibition on VEGFR-2, the IC50, lay at 139 nM.

In turn, `O=C(Cn1cc(-c2ccccc2)nn1)N/N=C/c1ccc(Cl)cc1` [Compound 11a, (E)-N'-(4-chlorobenzylidene)-2-(4-phenyl-1H-1,2,3-triazol-1-yl)acetohydrazide] gave a melting point of 259 to 259.6 °C. Also, on recombinant c-Met kinase, the half-inhibitory concentration (IC50) is over 12 µM.

In the case of `CC(=O)Nc1cccc(-c2cn(CC(=O)N/N=C/c3ccc(O)cc3)nn2)c1` [Compound 10c, (E)-2-(4-(3-acetamidophenyl)-1H-1,2,3-triazol-1-yl)-N'-(4-hydroxybenzylidene) acetohydrazide], the melting point was 260 to 260.8 °C. In addition, the IC50 on recombinant c-Met kinase turned out to be 11.2 µM.

Take `O=C(Cn1cc(-c2ccccc2)nn1)N/N=C/c1ccccc1[N+](=O)[O-]` [Compound 11e, (E)-N'-(2-nitrobenzylidene)-2-(4-phenyl-1H-1,2,3-triazol-1-yl)acetohydrazide]: the melting point is 225.2 to 225.6 °C. Further, the IC50 at recombinant c-Met kinase stood at 4.28 µM.
